Patent publication US20040048791A1, “Method for treating neoplastic cells using cycloprodigiosin or salt thereof” (priority 2002, published 2004)
Entries after “also recorded” stand apart in the source; their conditions may differ. Where a name gives a salt, the structure may show the parent alone. Read-outs that look alike come from different tables or passages of the source.

Assays:
[1] = target: T1, IKK (Homo sapiens, UniProt O14920+O15111); experiment: IKK activation in stimulated cells (immune complex kinase assay); format: cell-based; conditions: FIG. 2D
T1 construct: host or cells: HeLa cells (inferred)
Method: Luciferase gene reporter assay and Kinase assays of IKK: HeLa cells were transfected with the reporter plasmids described above using Lipofectin (GIBCO BRL). After 24-48 hr, the luciferase activity was determined using the Luciferase Assay System (Promega). The kinase activity of IKKα and IKKβ were analyzed by immune complex kinase assay as described previously (Oka, S., Kamata, H., Kamata, K., Yagisawa, H. and Hirata, H. (2000) FEBS Lett. 472, 196-202). The substrates was using GST-IκBα(1-55) or GST-p65(399-551).
In order to find out the mechanism of NF-κB suppression by cPrG-HCl, the effect on the signal transduction system, which functions upstream of NF-κB, was analyzed. First, the effect of cPrG-HCl on IKK activity was examined. […] Next, the effect of cPrG-HCl on phosphorylation and degradation of IκB was analyzed by Western blotting using anti-IκB antibody (FIG. 2E). In FIG. 2E, black arrows indicate IκBα and white arrows indicate phosphorylated IκBα. […] Namely, cPrG-HCl suppressed NF-κB activation without suppressing the steps up to IκB degradation. Accordingly, nuclear translocation of NF-κB was analyzed by Western blotting using p65 and p50 which are components of NF-κB (FIG. 2F). […] Further, the state of NF-κB activation in the nucleus was analyzed by EMSA (electrophoretic mobility shift assay) (FIG. 2G). In FIG. 2G, “n. s.” means nonspecific band.

[2] = test system: AP-1; experiment: EMSA of AP-1 DNA binding activity; format: cell-based
Method: In addition, in order to reveal the mechanism of the suppression of AP-1 transcriptional activation, the effect of cPrG-HCl on upstream kinases, i.e., JNK and p38, was analyzed. Further, relationship between the suppression of AP-1 transcriptional activation by cPrG-HCl and the acidification of intracellular pH was studied.

[3] = test system: JNK; experiment: JNK kinase activity after immune precipitation from HeLa cells; format: cell-based; conditions: 1 μM, TNFα or PMA 15 minutes, FIG. 9A, hydrochloride
Method: HeLa cells were pretreated with cPrG-HCl (1 μM) for 1 hour and then stimulated with TNFα (20 ng/ml) or PMA (1 μg/ml) for 15 minutes, and JNK recovered by an immune precipitation method was then reacted with [γ-^32P]-ATP and a substrate GST-c-Jun, after which SDS-PAGE was carried out and the resulting gel was analyzed by an imaging analyzer. Further, HeLa cells were pretreated with cPrG-HCl (1 μM) for 1 hour and then stimulated with TNFα (20 ng/ml) for 15 minutes, a cell extract was recovered and subjected to SDS-PAGE and Western blotting was carried out using p38 phosphorylation antibody.

[4] = test system: NF-κB; experiment: Nuclear translocation of NF-κB (Western blotting of p65 and p50); format: cell-based
Method: Electrophoretic mobility shift assay (EMSA): Nuclear extracts were prepared by the method of Schreiber, et al (Schreiber, E., Matthias, P., Muller, M. M. and Schaffner, W. (1989) Nucleic Acids Res. 17, 6419). Briefly, cells were solubilized with a buffer (10 mM HEPES-NaOH, pH 7.9, 10 mM KCl, 0.1 mM EDTA, 0.1 mM EGTA, 0.4% NP-40, 0.5 mM PMSF, 1 μg/ml aprotinin, 1 μg/ml leupeptin, 1 μg/ml pepstatin, 1 mM DTT), and then centrifuged at 10,000 rpm for 15 min. The pellets were resuspended in a buffer (20 mM HEPES-NaOH, pH 7.9, 400 mM NaCl, 1 mM EDTA, 1 mM EGTA, 1 mM PMSF, 1 μg/ml aprotinin, 1 μg/ml leupeptin, 1 μg/ml pepstatin, 1 μg/ml chymostatin, 1 μg/ml antipain, 1 mM DTT), and then centrifuged at 15,000 rpm for 15 min. […] The samples were electrophoresed on an 8% polyacrylamide gel and analyzed by an Imaging plate (Fuji Film). […]
In order to find out the mechanism of NF-κB suppression by cPrG-HCl, the effect on the signal transduction system, which functions upstream of NF-κB, was analyzed. […] Next, the effect of cPrG-HCl on phosphorylation and degradation of IκB was analyzed by Western blotting using anti-IκB antibody (FIG. 2E). […] Accordingly, nuclear translocation of NF-κB was analyzed by Western blotting using p65 and p50 which are components of NF-κB (FIG. 2F). […] Further, the state of NF-κB activation in the nucleus was analyzed by EMSA (electrophoretic mobility shift assay) (FIG. 2G). […]

[5] = test system: NF-κB; experiment: NF-κB luciferase reporter assay in U373, 293, COS7 and MKN45 cells; format: cell-based, human; African green monkey; conditions: all the cells tested: U373, 293, COS7, MKN45; FIGS. 6A to 6F
Method: In order to find out whether the suppression of NF-κB and AP-1 activation was specific to HeLa cells used above, analysis was made with various kind of cells. The cells used were U373 cells (human brain tumor cells), 293 cells (human embryo-derived kidney cells), COS7 cells (African green monkey kidney-derived cells), and MKN45 cells (human gastric tumor cells).
The NF-κB reporter plasmid pIG3Luc was incorporated into cells by transfection. After 24 hours, the cells were pretreated with cPrG-HCl at a specified concentration for 1 hour and then stimulated with TNFα (20 ng/ml) or PMA (1 μg/ml) for 4 hours, after which luciferase activity was measured. Each activity was corrected for the amount of protein.

[6] = test system: NF-κB; conditions: earlier abstract of the inventors (Kamata et al., 2000); cited from earlier work

T1 sequence (O15111 whole entry): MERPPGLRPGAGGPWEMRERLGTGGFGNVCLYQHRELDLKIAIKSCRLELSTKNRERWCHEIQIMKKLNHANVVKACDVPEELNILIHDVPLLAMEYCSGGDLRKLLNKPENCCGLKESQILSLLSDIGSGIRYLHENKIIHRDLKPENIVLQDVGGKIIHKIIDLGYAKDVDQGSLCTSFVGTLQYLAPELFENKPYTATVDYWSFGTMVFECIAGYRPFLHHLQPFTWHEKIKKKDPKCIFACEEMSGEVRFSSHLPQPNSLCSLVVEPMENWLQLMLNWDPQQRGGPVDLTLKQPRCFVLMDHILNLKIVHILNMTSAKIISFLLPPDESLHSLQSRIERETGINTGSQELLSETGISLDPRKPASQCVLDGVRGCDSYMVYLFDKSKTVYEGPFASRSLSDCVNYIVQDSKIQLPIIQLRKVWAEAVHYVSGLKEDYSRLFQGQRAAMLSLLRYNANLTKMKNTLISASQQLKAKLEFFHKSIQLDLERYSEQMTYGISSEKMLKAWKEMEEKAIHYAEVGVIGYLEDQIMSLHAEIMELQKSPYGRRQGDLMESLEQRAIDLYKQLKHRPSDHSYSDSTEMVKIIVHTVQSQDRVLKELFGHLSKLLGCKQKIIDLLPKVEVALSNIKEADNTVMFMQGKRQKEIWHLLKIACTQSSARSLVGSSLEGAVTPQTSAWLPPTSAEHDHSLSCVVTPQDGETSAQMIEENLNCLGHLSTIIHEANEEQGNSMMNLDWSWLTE
T1 sequence (O14920 whole entry): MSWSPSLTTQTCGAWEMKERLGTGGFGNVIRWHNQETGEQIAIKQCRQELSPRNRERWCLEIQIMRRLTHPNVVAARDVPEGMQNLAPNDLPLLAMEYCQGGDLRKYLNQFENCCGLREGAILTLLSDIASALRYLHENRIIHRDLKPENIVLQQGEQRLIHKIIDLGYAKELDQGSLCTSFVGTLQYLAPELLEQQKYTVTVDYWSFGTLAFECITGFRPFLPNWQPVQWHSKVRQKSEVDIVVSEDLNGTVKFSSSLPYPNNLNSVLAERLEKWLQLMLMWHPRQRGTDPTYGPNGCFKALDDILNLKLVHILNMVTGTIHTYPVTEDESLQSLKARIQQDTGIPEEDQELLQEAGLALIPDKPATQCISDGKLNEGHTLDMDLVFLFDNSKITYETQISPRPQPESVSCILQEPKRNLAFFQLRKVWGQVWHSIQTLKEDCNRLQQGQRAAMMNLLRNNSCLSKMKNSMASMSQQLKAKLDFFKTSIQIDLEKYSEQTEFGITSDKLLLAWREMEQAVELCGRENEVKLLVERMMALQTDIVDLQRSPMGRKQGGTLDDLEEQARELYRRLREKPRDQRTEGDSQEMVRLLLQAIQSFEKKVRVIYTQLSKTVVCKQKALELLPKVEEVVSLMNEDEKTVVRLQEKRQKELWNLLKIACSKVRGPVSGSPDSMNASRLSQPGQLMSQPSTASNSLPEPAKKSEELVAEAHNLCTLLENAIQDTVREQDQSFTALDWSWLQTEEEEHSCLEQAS
T1 sequence (Q9Y6K9 whole entry partner): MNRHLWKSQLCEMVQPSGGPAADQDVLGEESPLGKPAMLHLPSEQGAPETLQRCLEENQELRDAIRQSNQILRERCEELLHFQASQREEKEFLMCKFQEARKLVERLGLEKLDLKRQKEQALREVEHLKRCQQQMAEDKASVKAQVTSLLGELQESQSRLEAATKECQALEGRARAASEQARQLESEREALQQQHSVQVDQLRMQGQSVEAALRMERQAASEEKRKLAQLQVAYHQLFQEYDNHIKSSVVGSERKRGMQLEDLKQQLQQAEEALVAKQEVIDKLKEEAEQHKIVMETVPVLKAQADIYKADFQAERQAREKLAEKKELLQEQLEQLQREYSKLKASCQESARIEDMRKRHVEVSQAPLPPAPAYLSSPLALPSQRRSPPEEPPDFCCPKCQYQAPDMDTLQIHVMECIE

SMILES: COC1=CC(c2ccc[nH]2)=N/C1=C\c1[nH]c(C)c2c1C(C)CCC2 (stereo not shown) [cPrG-HCl, Cycloprodigiosin hydrochloride]
- TNFα-induced IKK activation [1]: did not suppressed
- DNA binding activity of AP-1 [2]: no inhibitory effect
- effect on JNK kinase [3]: suppressed neither; also recorded: no suppression
- nuclear translocation of NF-κB ([4]; PMA stimulation, FIG. 3B): inhibited neither
- nuclear translocation of NF-κB ([4]; TNFα stimulation, FIG. 2F): not inhibited
- NF-κB transcriptional activation [5]: suppressed
- nuclear translocation of NF-κB [6]: no suppressive effect
